Data published in the NIST ThermoML archive (doi:10.1016/j.jct.2014.05.014).
± gives the expanded uncertainty stated by the source.

Assay: refractive index (Na D-line) (dimensionless); cn = amount concentration of the nth substance listed, in mol/dm3
Details: 101.3 kPa, Liquid, Standard Abbe refractometry

CC(N)C(=O)[O-].[K+] (stereo not drawn) [potassium DL-alaninate] + O
refractive index
Details | 303.15 K | 308.15 K | 313.15 K | 318.15 K | 323.15 K | 328.15 K | 333.15 K | 338.15 K | 343.15 K
c1 = 0.526 | 1.3409 ± 0.00033 | 1.34021 ± 0.00033 | 1.33947 ± 0.00033 | 1.33867 ± 0.00033 | 1.33782 ± 0.00033 | 1.33692 ± 0.00033 | 1.33599 ± 0.00033 | 1.335 ± 0.00033 | 1.33402 ± 0.00033
c1 = 1.009 | 1.34955 ± 0.00037 | 1.3488 ± 0.00037 | 1.34802 ± 0.00037 | 1.3472 ± 0.00037 | 1.34634 ± 0.00037 | 1.34542 ± 0.00037 | 1.34446 ± 0.00037 | 1.34349 ± 0.00037 | 1.34248 ± 0.00037
c1 = 1.501 | 1.35822 ± 0.00042 | 1.35743 ± 0.00042 | 1.35661 ± 0.00042 | 1.35576 ± 0.00042 | 1.35486 ± 0.00042 | 1.35394 ± 0.00042 | 1.35299 ± 0.00042 | 1.352 ± 0.00042 | 1.35098 ± 0.00042
c1 = 2.005 | 1.36647 ± 0.00048 | 1.36566 ± 0.00048 | 1.36481 ± 0.00048 | 1.36391 ± 0.00047 | 1.363 ± 0.00047 | 1.36206 ± 0.00047 | 1.3611 ± 0.00047 | 1.3601 ± 0.00047 | 1.3591 ± 0.00047
c1 = 2.501 | 1.37461 ± 0.00055 | 1.37375 ± 0.00055 | 1.37285 ± 0.00054 | 1.37195 ± 0.00054 | 1.37103 ± 0.00054 | 1.37004 ± 0.00054 | 1.36904 ± 0.00054 | 1.36803 ± 0.00054 | 1.36701 ± 0.00054
c1 = 2.986 | 1.38281 ± 0.0006 | 1.38192 ± 0.0006 | 1.38098 ± 0.0006 | 1.38002 ± 0.0006 | 1.37908 ± 0.0006 | 1.37809 ± 0.0006 | 1.3771 ± 0.00059 | 1.3761 ± 0.00059 | 1.37507 ± 0.00059
c1 = 3.498 | 1.39058 ± 0.00065 | 1.38964 ± 0.00065 | 1.3887 ± 0.00065 | 1.38775 ± 0.00065 | 1.38677 ± 0.00065 | 1.38576 ± 0.00064 | 1.38471 ± 0.00064 | 1.38364 ± 0.00064 | 1.38259 ± 0.00064

CC(N)C(=O)[O-].[Na+] (stereo not drawn) [sodium DL-alaninate] + O
refractive index
Details | 303.15 K | 308.15 K | 313.15 K | 318.15 K | 323.15 K | 328.15 K | 333.15 K | 338.15 K | 343.15 K
c1 = 0.498 | 1.3409 ± 0.00033 | 1.34021 ± 0.00033 | 1.33945 ± 0.00033 | 1.33864 ± 0.00033 | 1.33778 ± 0.00033 | 1.33688 ± 0.00033 | 1.33592 ± 0.00033 | 1.3349 ± 0.00033 | 1.33388 ± 0.00033
c1 = 0.99 | 1.34952 ± 0.00037 | 1.34876 ± 0.00037 | 1.34796 ± 0.00037 | 1.34712 ± 0.00037 | 1.34624 ± 0.00037 | 1.34528 ± 0.00037 | 1.34432 ± 0.00037 | 1.34333 ± 0.00036 | 1.34232 ± 0.00036
c1 = 1.485 | 1.35799 ± 0.00042 | 1.35719 ± 0.00042 | 1.35636 ± 0.00041 | 1.35547 ± 0.00041 | 1.35455 ± 0.00041 | 1.35358 ± 0.00041 | 1.35259 ± 0.00041 | 1.35156 ± 0.00041 | 1.35053 ± 0.00041
c1 = 1.983 | 1.3663 ± 0.00047 | 1.36544 ± 0.00047 | 1.36454 ± 0.00047 | 1.36361 ± 0.00047 | 1.36264 ± 0.00047 | 1.36164 ± 0.00047 | 1.36061 ± 0.00047 | 1.35958 ± 0.00046 | 1.35853 ± 0.00046
c1 = 2.476 | 1.37433 ± 0.00053 | 1.37341 ± 0.00053 | 1.37246 ± 0.00053 | 1.37149 ± 0.00053 | 1.37049 ± 0.00052 | 1.36949 ± 0.00052 | 1.36845 ± 0.00052 | 1.36735 ± 0.00052 | 1.36627 ± 0.00052
c1 = 3.063 | 1.38382 ± 0.00061 | 1.38284 ± 0.00061 | 1.3818 ± 0.00061 | 1.38074 ± 0.0006 | 1.3797 ± 0.0006 | 1.37866 ± 0.0006 | 1.37755 ± 0.0006 | 1.37643 ± 0.0006 | 1.37534 ± 0.00059
